One experiment has as its system Human chondrocytes. Description: Cell panning of phage library on chondrocytes. It is filed as cell-based. Conditions: phage-displayed peptide. An excerpt: The SCX16S library (described in Example 1) was screened for binding to chondrocytes. The peptides of the library were of the format SCX16S, including 16 central random amino acids, terminal fixed serines and a single cysteine residue.
Human chondrocytes were obtained from Clonetics, Inc. (San Diego, Calif., United States of America) and grown to confluency on one well of a polystyrene 6-well plate in supplemented F-12 media (Sigma-Aldrich Corp., St. Louis, Mo., United States of America). The entire cell panning procedure was free of detergent. The library was pre-cleared of phage that specifically or non-specifically bind polystyrene by incubating phage in polystyrene wells for two hours prior to addition to the cellular target. In each round, nonspecific binding sites were blocked using 5% dry milk in PBS. Phage were detected, isolated, amplified, and sequenced as described in Example 2. A representative peptide has the sequence SCSVYDHKIGRDSFYSGCS (SEQ ID NO:101). A representative peptide also has a preference for chondrocytes greater than 10 fold over endothelial cells.

The nature of experiment [1]: AFM pull-off force measurements on polystyrene. It is filed as binding. Conditions: peptide on gold-coated AFM cantilever, PBS buffer, 300 nm/sec. From the text: The adhesion strength and mode of binding are both IFBM and substrate dependent. To characterize and quantify the adhesion forces between IFBMs and synthetic and biological substrates, a state-of-the-art force spectrometer that employs a high precision, piezo driven flexure stage equipped with a capacitive displacement sensor with a position resolution of about 0.5 nm was used. A polystyrene binding peptide from the X6YX6 peptide library was used (a cysteine-terminated peptide containing the polystyrene-binding domain in the forward direction; CGSSLVGLHSYWSSPFF; SEQ ID NO:117). The cysteine-terminated peptides were then linked to a gold-coated atomic force microscope (AFM) cantilever by incubating the cantilever in a solution of the peptide (1 mg/ml). Pull-off force measurements were carried out in PBS buffer solution on a MultiMode AFM (Digital Instruments, now Veeco Instruments, Inc., Woodbury, N.Y., United States of America) by repeatedly engaging a polystyrene surface with the modified cantilever tip at a speed of 300 nm/sec. The mean adhesion force for the peptide was approximately 300 pN.

Experiment [2] in a line: Phage panning and ELISA for binding to polyurethane. Conditions: phage-displayed peptide, SCX16S library. As for the experimental part: To detect phage that specifically bound to titanium, conventional ELISAs were performed using an anti-M13 phage antibody conjugated to HRP, followed by the addition of chromogenic agent o-phenylenediamine in 10% hydrogen peroxide. Relative binding strengths of the phage were determined by absorbance measurements at 490 nm using a microtiter plate reader.
The SCX16S library (described in Example 1) was screened for binding to polyurethane. Phage were detected, isolated, amplified, and sequenced as described in Example 2.

Experiment [3] has as its system human umbilical vein endothelial cells (HUVECs). The experiment in a line: HUVEC adhesion and spreading on binding-agent-coated polystyrene wells. It is filed as cell-based. Conditions: 25 mg/mL coating; light microscopy after 1-hour, 2-hour or overnight culture; vs polystyrene-binding peptide lacking cell-binding domain or uncoated. As for the experimental part:
A 25 mg/mL solution was prepared using a binding agent comprising the peptide sequence RGDFLSFVFPASAWGG (SEQ ID NO:72) in a mixture of 90 parts PBS pH 7.4 and 10 parts DMSO. Fifty (50) μl of the binding agent solution was to each of three wells of a 96-well polystyrene microtiter plate for a duration of 1 hour. In another 3 wells, 50 μl of a control peptide 25 mg/ml fluorescein-labeled FLSFVFPASAWGG (SEQ ID NO:1) was added. The wells were washed three times with PBS and non-specific protein binding sites were blocked with sterile-filtered BSA (3% in PBS) for 30 minutes with shaking at 25 rpm. […] Following 4 washes with PBS, human umbilical vein endothelial cells (HUVECs) in supplemented EBM media were seeded onto each well. Cell adhesion and spreading was monitored by light microscopy following a 1-hour, 2-hour, or overnight culture.

For experiment [4], the system named is adult human dermal fibroblasts (NHDFs). The experiment in a line: NHDF adhesion to IFBM-coated polystyrene. In kind it is cell-based. As for the experimental part:
(§1) First, a 1.0 mg/ml solution of FFPYSHLGVLSSG-PEG (SEQ ID NO:104) was prepared in water. The solution was added to the wells of a 96 well polystyrene culture plate and incubated at 50° C. overnight. The wells were then washed twice with PBS before seeding with 300 μl of either cell type. Human fibroblast and endothelial cells were also seeded on untreated polystyrene (N=3) and peptide (non-pegylated) coated polystyrene (N=3). After overnight incubation at 37° C., the wells were washed 5 times in excess PBS, then fixed in ethanol and stained with eosin Y for cell counting and optical microscopy. Both NHDF and HUVEC cells lose their rounded morphology, spread, and adhere to the untreated control plastic. At higher magnification, marked membrane ruffling is evident.

Experiment [5] concerns human umbilical vein endothelial cells (HUVECs). The experiment in a line: HUVEC adhesion to IFBM-coated polystyrene. It is filed as cell-based. As for the experimental part:
as §1

Setting [6] is: 1.0 mg/ml coating, overnight incubation at 37° C.
[7] abbreviates: coated vs untreated polystyrene.

Data on five substances can be found in patent publication US20060263830A1, “Interfacial biomaterials” (priority 2001, published 2006).

Consider “SCSVYDHKIGRDSFYSGCS (Chondrocyte-binding peptide 101) [SEQ ID NO:101]”, for which the “preference for chondrocytes over endothelial cells” value in the experiment on Human chondrocytes is on record as “greater than 10 fold”.
With “CGSSLVGLHSYWSSPFF (Polystyrene-binding peptide 117) [SEQ ID NO:117]”, the mean adhesion force entry in experiment [1] was “approximately 300 pN”.
Regarding “SCYVNGHNSVWVVVFWGVS (Polyurethane-binding peptide 1) [SEQ ID NO:23]”, in experiment [2], the “specific binding to polyurethane” value is given as “specifically binds”.
Regarding FLSFVFPASAWGGSSGRGD [SEQ ID NO:72], the “cell adhesion and spreading” value in experiment [3] is “increased cell adhesion and cell spreading”.
Take “FFPYSHLGVLSSG-PEG (PEG conjugated; Polystyrene-binding peptide 104) [SEQ ID NO:104, multi-functional peptide or interfacial biomaterial (IFBM) with PEG cell-repelling segment]”: the “cell morphology and attachment on treated polystyrene” value in experiment [4] (setting [6]) is “maintain a round morphology and are not tightly adhered to the surface”; in experiment [5] (setting [6]) it was “maintain a round morphology and are not tightly adhered to the surface”. The “cell adhesion (cell counting)” value in experiment [4] (setting [7]) and in experiment [5] (setting [7]) was “substantially lessened” each time. Moreover, the “cell number (cell counting)” value in experiment [4] (setting [7]) and in experiment [5] (setting [7]) was “dramatically reduced” throughout.
